Assay results published in patent US20050209278A1, “Piperidinyl- and piperazinyl-sulfonylmethyl hydroxamic acids and their use as protease inhibitors” (priority 2002, published 2005).
pIC50: −log10 of the molar value.

molecular target: T1, MMP-1 (Homo sapiens, UniProt P03956); test: In vitro MMP inhibition, IC50 determination (fluorogenic substrate I); assay type: biochemical; settings: value in parentheses; read-out: MMP-1 (IC-50)
T1 construct: made in house; host or cells: MMP-1-transfected HT-1080 cells (spent media)
T1 sequence (P03956 100-469): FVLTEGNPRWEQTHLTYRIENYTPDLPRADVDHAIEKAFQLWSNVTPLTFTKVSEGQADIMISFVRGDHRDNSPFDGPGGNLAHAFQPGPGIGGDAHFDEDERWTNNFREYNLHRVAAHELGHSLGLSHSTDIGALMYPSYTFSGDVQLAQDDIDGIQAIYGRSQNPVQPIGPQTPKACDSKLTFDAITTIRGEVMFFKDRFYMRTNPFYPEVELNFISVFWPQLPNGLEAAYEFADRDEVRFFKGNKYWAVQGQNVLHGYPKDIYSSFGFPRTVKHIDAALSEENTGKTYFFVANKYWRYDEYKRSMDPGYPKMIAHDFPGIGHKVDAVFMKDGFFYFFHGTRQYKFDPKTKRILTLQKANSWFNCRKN
Experimental: Several hydroxamic acids and salts thereof were analyzed in in vitro assays to determine their ability to inhibit the MMP cleavage of peptide substrates. […] and IC50 constants were calculated from the assayed hydroxamic acid-MMP interactions. Human recombinant MMP-1, MMP-2, MMP-9, MMP-13, and MMP-14 were used in this assay. All enzymes were prepared in Assignee's laboratories following usual laboratory procedures. Protocols for the preparation and use of these enzymes are available in the scientific literature. See, e.g., Enzyme Nomenclature (Academic Press, San Diego, Calif., 1992) (and the citations therein). See also, Freije et al., “Molecular cloning and expression of collagenase-3, a novel human matrix metalloproteinase produced by breast carcinomas,” J Biol. Chem., 269(24), 16766-16773 (1994). The MMP-1 proenzyme was purified from the spent media of MMP-1-transfected HT-1080 cells provided by Dr. Harold Welgus of Washington University (St. Louis, Mo.). The protein was purified on a zinc chelating column. All MMPs were activated using 4-aminophenylmercuric acetate (“APMA”, Sigma Chemical, St. Louis, Mo.) or trypsin. MMP-9 also was activated using human recombinant MMP-3 (purified in Assignee's laboratory following standard cloning and purification techniques). […] Substrate (I) was purchased from Baychem (Redwood City, Calif.), and substrate II was prepared Assignee's laboratory. Substrate I was used in the IC50 determination assays, while substrate II was used in the Ki determination assays. In the absence of MMP inhibitory activity, either substrate is cleaved at the Gly-Leu peptide bond. […] The stock solutions of the assayed hydroxamic acids (or salts thereof) were prepared in 1% dimethyl sulfoxide (DMSO). […] The experiment controls contained the same amount of Buffer A/DMSO as the assayed sample, but contained no hydroxamic acid (or salt thereof). The assays from which the IC50 determinations were made were performed as follows. […] Louis, Mo.). The assayed hydroxamic acid samples were incubated in MicrofluorTM White Plates (Dynatech, Chantilly, Va.) and analyzed on a Perkin Elmer […] plate reader (Norwalk, Conn.). The excitation wavelength was 328 nm, and the emission wavelength-415 nm. […] As stated in the previous paragraph, samples containing varying concentrations of the same assayed hydroxamic acid were prepared. Inhibition was measured as a reduction in fluorescent intensity as a function of MMP inhibitor concentration. […] All values in Table 2 are given in nM units. The IC50 measurements are in parenthesis.

pIC50, < 5.00:
COCCOc1ccc(N2CCN(S(=O)(=O)C3(C(=O)NO)CCN(C4CC4)CC3)CC2)cc1F [Example 297], C#CCN1CCC(C(=O)NO)(S(=O)(=O)N2CCN(c3ccc(OCCCC)cc3)CC2)CC1 [Example 303], CCCCOc1ccc(N2CCN(S(=O)(=O)C3(C(=O)NO)CCN(C4CC4)CC3)CC2)cc1 [Example 301], CCCCOc1ccc(N2CCN(S(=O)(=O)C3(C(=O)NO)CCN(CC4CC4)CC3)CC2)cc1 [Example 298], CCCCOc1ccc(N2CCN(S(=O)(=O)C3(C(=O)NO)CCN(c4ccc(C)cc4)CC3)CC2)cc1F [Example 296], CCCCOc1ccc(N2CCN(S(=O)(=O)C3(C(=O)NO)CCN(c4ccc(C)cc4)CC3)CC2)cc1 [Example 295]
